Measurements: patent US20220378920A1, “CONJUGATE OF GalNAc-OLIGONUCLEOTIDE FOR DELIVERY TO LIVER AND MANUFACTURING METHOD THEREOF” (DAIICHI SANKYO COMPANY, LIMITED, priority 2019, published 2022)

Assays:
[1] = tested on: G6PC mRNA (c.648G>T); test: Repair of abnormal splicing of G6PC mRNA in 293A cells cotransfected with human G6PC full-length plasmid vector (pcDNA hG6PC (c.648G>T)+Int4), qRT-PCR (SYBR Green); format: cell-based; conditions: cotransfection with plasmid vector, oligonucleotide final 20 nM, 24 hours
Description: 293A cells were maintained and cultured in a maintenance medium (DMEM, 10% FBS). In the experiment, cells were seeded on a 6-well plate at a density of 2×10^5 cells/well and on a 12-well plate at a density of 1×10^5 cells/well, and the compound of each example and a plasmid vector were simultaneously introduced on the next day, as will be described later, to be used for evaluation.
The compound of each example and a plasmid vector were cotransfected as follows.
In the case of using a 6-well plate, 250 μL of Opti-MEM Medium (Gibco), 0.50 μL of plasmid vector (1 mg/mL), and 4.0 μL (final: 20 nM) of the compound produced in each example (12.5 μM) as solution A and 250 μL of Opti-MEM Medium (Gibco) and 6.0 μL of Lipofectamine2000 (Invitrogen) as solution B were prepared per well, and solution A and solution B were mixed. […]
A human G6PC full-length plasmid vector (pcDNA hG6PC (c.648G>T)+Int4) and each oligonucleotide (15e_001, 15e_002, and the compound of Example 93 of International Publication No. WO 2004/048570 as a control) were cotransfected and evaluated by qRT-PCR (SYBR Green) for whether abnormal splicing due to G6PC (c.648G>T) was repaired. […]

[2] = tested on: ApoB mRNA; test: Inhibition of ApoB mRNA expression in human primary hepatocytes, qRT-PCR (Taqman assay); format: cell-based; conditions: 72 hours, wells with no compounds added taken as 100%
Description: FIG. 3 is a graph showing degradation effects of ApoB mRNA in human primary cultured hepatocytes when ApoB-ASO (white column) and an ApoB-ASO conjugate (filled column) are added to the cells. The amounts of ApoB mRNA in the cells are quantitatively evaluated relatively by qRT-PCR (corrected by the amount of actin mRNA). The Y axis represents relative values (%) in the addition groups when the amount of ApoB mRNA in untreated human primary cultured hepatocytes is taken as 100%.
FBS (Gibco) was added to a Modified Lanford Medium (Nissui Pharmaceutical Co., Ltd) to 10%, to prepare an adhesion medium. Frozen human primary hepatocytes (Gibco, Hu8105) were taken out from a liquid nitrogen tank, thawed at 37° C., then immediately poured into CHRM (Invitrogen), and gently mixed, followed by centrifugation (100 g, 10 minutes) at room temperature. The supernatant was removed with an aspirator, and then an adhesion medium heated to 37° C. was added, to prepare a cell suspension. The number of living cells was counted by an automatic counter (Bio-Rad Laboratories, Inc.), and then the cells were seeded on a collagen-coated 24-well plate (the number of living cells seeded: 1.4 to 2.1×10^5 cells/well). After culture in a CO2 incubator for 4 to 5 hours, the cells were confirmed to be adhered with a microscope, and the compound addition experiment described below was performed.
To a Modified Lanford Medium containing 10% FBS, was added the compound of Reference Example 45 with no GalNAc derivatives bound or the compound of Example 208 with a GalNAc derivative bound, to prepare a compound-containing medium with a target concentration (which was 100 nM in ApoB mRNA, expression evaluation (1) and 10 nM and 100 nM in ApoB mRNA expression evaluation (2), as described below). After the medium of human primary hepatocytes in each well cultured in the 24-well plate had been removed by aspiration, the compound-containing medium was added in an amount of 0.5 mL for each, to start incubation 72 hours later, the later-described RNA extraction experiment was performed
Following incubation, the compound-containing medium in each well of human primary hepatocytes was removed by aspiration and the cells were washed with ice-cooled PBS (0.5 mL). A 1/100 amount of 2-Mercaptoethanol was added to the RTL buffer of the RNeasy Mini QIAcube Kit (QIAGEN K.K.) to prepare a cell lysate. The cell lysate was added in an amount of 400 μL per well and collected after incubation at room temperature for 5 minutes. […]
The reverse transcription reaction was performed as follows. […] 20 μL of the reverse transcription reaction product was diluted 5 times with 80 μL of purified water and stored at −30° C. or evaluated by qRT-PCR as follows. […]

Substance | abnormal splicing of G6PC mRNA due to G6PC (c.648G>T) repaired [1] | inhibition of ApoB mRNA expression ([2]; 10 nM) [%] | inhibition of ApoB mRNA expression ([2]; 100 nM) [%]
15e_001: oligonucleotide sequence 15e_001, the sequence of Example 8 (SEQ ID No: 40), tested as oligonucleotide (AAUCCGATGGCGAAG; chemistry not given here) [Example 15e_001] | normalized | – | –
ApoB-ASO: oligonucleotide of the Example 24 sequence (SEQ ID No: 96) with no GalNAc units bound (AGCATTGGTATTCA; listed as DNA, further chemistry not given here) | – | 4.4 | 41.2
X^20-G^e2s-C^e2s-A^s-T^s-T^s-G^s-G^s-T^s-A^s-T^s-T^e2s-C^e2s-A^e2s-H [ApoB-ASO conjugate] | – | 30.3 | 68.6
